10 compounds from PubChem BioAssay (NCI) can be followed below.

Test systems include A549 NSCLC; EKVX NSCLC; HCT-15 colon; HL-60(TB) leukemia; KM20L2 colon; MOLT-4 leukemia; OVCAR-3 ovarian; OVCAR-4 ovarian; OVCAR-5 ovarian; OVCAR-8 ovarian; SF-295 CNS; SK-MEL-28 melanoma; SK-MEL-5 melanoma; SK-OV-3 ovarian; SNB-19 CNS; SNB-75 CNS; SW-620 colon; U251 CNS; UO-31 renal.
Common to all, as to experiment: NCI tumour cell line growth inhibition, 48 h

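48-hour exposure; five concentrations; linearly interpolated endpoints. GI50 = concentration required for 50% inhibition of growth. The concentration for full growth arrest is given as TGI.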

With `CC(C(=O)O)c1cnn(-c2ccccc2)c1-n1cccc1` (stereo unspecified), the TGI with A549 NSCLC, in the assay on EKVX NSCLC, with HCT-15 colon, with HL-60(TB) leukemia, in the assay with KM20L2 colon and with MOLT-4 leukemia was above 100 µM throughout. Also, the TGI in the assay with OVCAR-3 ovarian, in the assay with OVCAR-4 ovarian, in the assay on OVCAR-5 ovarian, in the assay on OVCAR-8 ovarian, in the assay with SF-295 CNS and in the assay on SK-MEL-28 melanoma was above 100 µM in each case. In addition, the TGI in the assay with SK-MEL-5 melanoma, in the assay on SK-OV-3 ovarian, in the assay with SNB-19 CNS, with SNB-75 CNS, in the assay with SW-620 colon and with U251 CNS was above 100 µM throughout. Moreover, the TGI with UO-31 renal was above 100 µM.

Regarding `Oc1ccc2ccccc2c1N=Nc1ccc(F)cc1`, the TGI in the assay with A549 NSCLC, in the assay with HCT-15 colon, with HL-60(TB) leukemia, with KM20L2 colon, in the assay on MOLT-4 leukemia and in the assay with OVCAR-3 ovarian was above 100 µM each time. Further, the TGI with OVCAR-4 ovarian, with OVCAR-5 ovarian, with OVCAR-8 ovarian, in the assay with SF-295 CNS, in the assay with SK-MEL-28 melanoma and with SK-MEL-5 melanoma was above 100 µM in each case. Also, the TGI with SK-OV-3 ovarian, in the assay with SNB-19 CNS, in the assay with SNB-75 CNS, with SW-620 colon, with U251 CNS and with UO-31 renal was above 100 µM in each case.

For the compound `CC(=O)OC[C@H]1[C@@H]2C(CC[C@]13CO3)OC(=O)CC(C)[C@]2(C)CCc1ccoc1` (stereo partly specified), the TGI in the assay on A549 NSCLC, with EKVX NSCLC, in the assay with HCT-15 colon, in the assay on HL-60(TB) leukemia, with MOLT-4 leukemia and in the assay on OVCAR-3 ovarian was above 100 µM each time. Further, the TGI with OVCAR-4 ovarian, in the assay with OVCAR-5 ovarian, in the assay with OVCAR-8 ovarian, with SF-295 CNS, in the assay with SK-MEL-28 melanoma and in the assay with SK-MEL-5 melanoma was above 100 µM throughout. In addition, the TGI with SK-OV-3 ovarian, with SNB-19 CNS, in the assay with SW-620 colon, in the assay with U251 CNS and in the assay on UO-31 renal was above 100 µM in each case.

Consider `O=C(NCCCNC(=O)c1ccc2cc(O)c(O)cc2c1)c1ccc2cc(O)c(O)cc2c1`, for which the TGI is above 100 µM in the assay with A549 NSCLC; above 100 µM in the assay on EKVX NSCLC; above 100 µM in the assay on HCT-15 colon; 59.7 µM with HL-60(TB) leukemia; above 100 µM in the assay with MOLT-4 leukemia; 45.4 µM with OVCAR-4 ovarian. In addition, the TGI with OVCAR-5 ovarian is above 100 µM; with OVCAR-8 ovarian, above 100 µM; in the assay on SK-MEL-28 melanoma, above 100 µM; in the assay on SK-MEL-5 melanoma, 48.4 µM; in the assay on SNB-19 CNS, 56.5 µM; with SNB-75 CNS it was above 100 µM. Besides, the TGI in the assay with SW-620 colon, with U251 CNS and in the assay on UO-31 renal was above 100 µM in each case.

In the case of `CC[C@]12C=CCN3CC[C@@]4(c5ccc(OC)cc5N(C)[C@H]4[C@@](O)(C(=O)OC)[C@@H]1OC(C)=O)[C@@H]32`, the TGI with A549 NSCLC was above 200 µM; in the assay on EKVX NSCLC, above 200 µM; with HCT-15 colon it was above 63.2 µM; in the assay with HL-60(TB) leukemia it was above 200 µM; with KM20L2 colon it was above 164 µM; in the assay with MOLT-4 leukemia it was above 176 µM. The TGI with OVCAR-3 ovarian was above 112 µM; in the assay with OVCAR-4 ovarian it was above 63.2 µM; in the assay on OVCAR-5 ovarian it was above 200 µM; in the assay with OVCAR-8 ovarian, above 11.2 µM; in the assay on SF-295 CNS, above 200 µM; in the assay on SK-MEL-28 melanoma it was above 200 µM. Also, the TGI in the assay with SK-MEL-5 melanoma, in the assay on SK-OV-3 ovarian, in the assay with SNB-19 CNS, in the assay with SNB-75 CNS, with SW-620 colon and with U251 CNS was above 200 µM in each case. This compound also displayed a TGI in the assay on UO-31 renal above 92.8 µM.

Turning to `COc1ccc2c(c1)CCCc1cn[nH]c1-2`, the TGI in the assay with A549 NSCLC, in the assay on EKVX NSCLC, in the assay on HCT-15 colon, in the assay on HL-60(TB) leukemia, with KM20L2 colon and in the assay on MOLT-4 leukemia was above 100 µM in each case. The TGI in the assay with OVCAR-3 ovarian, with OVCAR-4 ovarian, in the assay with OVCAR-5 ovarian, in the assay on OVCAR-8 ovarian, with SF-295 CNS and in the assay on SK-MEL-28 melanoma was above 100 µM throughout. For the same compound, the TGI in the assay with SK-MEL-5 melanoma, in the assay with SK-OV-3 ovarian, in the assay on SNB-19 CNS, in the assay with SNB-75 CNS, in the assay with SW-620 colon and in the assay on U251 CNS was above 100 µM throughout. Besides, the TGI in the assay with UO-31 renal was above 100 µM.

Consider `CCOCNC(=O)N(COCC)COCC`, for which the TGI with A549 NSCLC, with EKVX NSCLC, with HCT-15 colon, with HL-60(TB) leukemia, in the assay with KM20L2 colon and with MOLT-4 leukemia was above 100 µM in each case. The TGI in the assay with OVCAR-3 ovarian, with OVCAR-5 ovarian, in the assay with OVCAR-8 ovarian, in the assay with SF-295 CNS, in the assay with SK-MEL-28 melanoma and in the assay on SK-OV-3 ovarian was above 100 µM each time. In addition, the TGI in the assay on SNB-19 CNS, with SNB-75 CNS, in the assay on SW-620 colon and in the assay on UO-31 renal was above 100 µM throughout.

`CN(CCCNc1ccc2ncn3c4ccccc4c(=O)c1c23)CCCN1C(=O)c2cccc3cc([N+](=O)[O-])cc(c23)C1=O`: the TGI with A549 NSCLC was found to be 0.126 µM; with EKVX NSCLC it was 2.16 µM; in the assay on HCT-15 colon, 0.326 µM; in the assay on MOLT-4 leukemia, 0.193 µM; in the assay with OVCAR-3 ovarian it was 2.29 µM; in the assay on OVCAR-4 ovarian, 2.75 µM. The TGI with OVCAR-5 ovarian was 2.35 µM; in the assay on OVCAR-8 ovarian, 1.86 µM; in the assay on SF-295 CNS, 1.42 µM; in the assay with SK-MEL-28 melanoma, 2.86 µM; in the assay with SK-OV-3 ovarian it was 2.69 µM; in the assay with SNB-19 CNS, 2.28 µM. For the same compound, the values for the TGI with SNB-75 CNS, in the assay on U251 CNS and with UO-31 renal were 1.81 µM, 0.133 µM and 2.26 µM, respectively. Besides, the GI50 with HL-60(TB) leukemia is 0.191 µM.

With `COc1ccc(-c2c(C#N)c(NC(=S)NC(=O)c3ccccc3)nc3c2CCCC3)cc1OC`, the TGI is above 100 µM in the assay on A549 NSCLC; 70.4 µM in the assay with EKVX NSCLC; above 100 µM with HCT-15 colon; above 100 µM with HL-60(TB) leukemia; above 100 µM in the assay with MOLT-4 leukemia; above 100 µM with OVCAR-3 ovarian. Moreover, the TGI in the assay on OVCAR-4 ovarian, in the assay on OVCAR-5 ovarian, in the assay with OVCAR-8 ovarian, in the assay on SF-295 CNS, in the assay on SK-MEL-28 melanoma and in the assay with SK-MEL-5 melanoma was above 100 µM throughout. Further, the TGI with SK-OV-3 ovarian, with SNB-19 CNS, in the assay on SNB-75 CNS, with SW-620 colon, in the assay with U251 CNS and in the assay with UO-31 renal was above 100 µM each time.

For the compound `CC(C)CCN=c1cc2n(-c3ccc(Cl)cc3)c3ccccc3nc-2cc1Nc1ccc(Cl)cc1`, the TGI is above 56.4 µM in the assay with A549 NSCLC; above 53 µM in the assay on EKVX NSCLC; 23.2 µM in the assay on HCT-15 colon; 11.1 µM in the assay with HL-60(TB) leukemia; 19.7 µM in the assay with KM20L2 colon; above 51.8 µM with MOLT-4 leukemia. Further, the TGI with OVCAR-3 ovarian is 6.61 µM; with OVCAR-4 ovarian it was 18.4 µM; with OVCAR-5 ovarian it was 35.3 µM; in the assay with OVCAR-8 ovarian it was 33.7 µM; in the assay with SF-295 CNS, 44.2 µM; with SK-MEL-28 melanoma it was above 82.8 µM. For the same compound, the TGI with SK-MEL-5 melanoma was 25.3 µM; with SK-OV-3 ovarian, 70.2 µM; in the assay with SNB-19 CNS, above 100 µM; with SNB-75 CNS, above 91.4 µM; in the assay with SW-620 colon, above 70.3 µM; with U251 CNS, 26.5 µM. Also, in the assay on UO-31 renal, the TGI came to 18.9 µM.
